Results reported in patent publication US20130338106A1, “COMPOUNDS INHIBITING LEUCINE-RICH REPEAT KINASE ENZYME ACTIVITY” (priority 2011, published 2013).

Experiments:
Assay type in all cases: biochemical
Conditions in all cases: tested at 10 uM, read-out: percent inhibition of the kinase activity
MINK = target: T1, MINK (Homo sapiens, UniProt Q8N4C8); assay: ProfilerPro Kinase Selectivity, MINK
T1 construct: purchased Caliper LifeSciences
Experimental: (§1) Kinome selectivity profiling was performed using two example compounds according to the manufacturer's instructions using Caliper LifeSciences' ProfilerPro Kinase Selectivity Assay Kits. Compounds prepared in Examples 1 and 7 were tested at 10 uM and data were recorded using the Caliper LabChip® EZ Reader™. Each compounds' percent inhibition of the kinase activity measured in this manner is reported in the following lists.

INSR = target: T2, INSR (Homo sapiens, UniProt P06213); assay: ProfilerPro Kinase Selectivity, INSR
T2 construct: purchased Caliper LifeSciences
Experimental: as §1

PRKCH = target: T3, PRKCH (Homo sapiens, UniProt P24723); assay: ProfilerPro Kinase Selectivity, PRKCH
T3 construct: purchased Caliper LifeSciences
Experimental: as §1

MST2 = target: T4, MST2 (Homo sapiens, UniProt Q13188); assay: ProfilerPro Kinase Selectivity, MST2
T4 construct: purchased Caliper LifeSciences
Experimental: as §1

EPHA4 = target: T5, EPHA4 (Homo sapiens, UniProt P54764); assay: ProfilerPro Kinase Selectivity, EPHA4
T5 construct: purchased Caliper LifeSciences
Experimental: as §1

MET = target: T6, MET (Homo sapiens, UniProt P08581); assay: ProfilerPro Kinase Selectivity, MET
T6 construct: purchased Caliper LifeSciences
Experimental: as §1

HER4 = target: T7, HER4 (Homo sapiens, UniProt Q15303); assay: ProfilerPro Kinase Selectivity, HER4
T7 construct: purchased Caliper LifeSciences
T7 sequence (Q15303 26-1308, species assumed): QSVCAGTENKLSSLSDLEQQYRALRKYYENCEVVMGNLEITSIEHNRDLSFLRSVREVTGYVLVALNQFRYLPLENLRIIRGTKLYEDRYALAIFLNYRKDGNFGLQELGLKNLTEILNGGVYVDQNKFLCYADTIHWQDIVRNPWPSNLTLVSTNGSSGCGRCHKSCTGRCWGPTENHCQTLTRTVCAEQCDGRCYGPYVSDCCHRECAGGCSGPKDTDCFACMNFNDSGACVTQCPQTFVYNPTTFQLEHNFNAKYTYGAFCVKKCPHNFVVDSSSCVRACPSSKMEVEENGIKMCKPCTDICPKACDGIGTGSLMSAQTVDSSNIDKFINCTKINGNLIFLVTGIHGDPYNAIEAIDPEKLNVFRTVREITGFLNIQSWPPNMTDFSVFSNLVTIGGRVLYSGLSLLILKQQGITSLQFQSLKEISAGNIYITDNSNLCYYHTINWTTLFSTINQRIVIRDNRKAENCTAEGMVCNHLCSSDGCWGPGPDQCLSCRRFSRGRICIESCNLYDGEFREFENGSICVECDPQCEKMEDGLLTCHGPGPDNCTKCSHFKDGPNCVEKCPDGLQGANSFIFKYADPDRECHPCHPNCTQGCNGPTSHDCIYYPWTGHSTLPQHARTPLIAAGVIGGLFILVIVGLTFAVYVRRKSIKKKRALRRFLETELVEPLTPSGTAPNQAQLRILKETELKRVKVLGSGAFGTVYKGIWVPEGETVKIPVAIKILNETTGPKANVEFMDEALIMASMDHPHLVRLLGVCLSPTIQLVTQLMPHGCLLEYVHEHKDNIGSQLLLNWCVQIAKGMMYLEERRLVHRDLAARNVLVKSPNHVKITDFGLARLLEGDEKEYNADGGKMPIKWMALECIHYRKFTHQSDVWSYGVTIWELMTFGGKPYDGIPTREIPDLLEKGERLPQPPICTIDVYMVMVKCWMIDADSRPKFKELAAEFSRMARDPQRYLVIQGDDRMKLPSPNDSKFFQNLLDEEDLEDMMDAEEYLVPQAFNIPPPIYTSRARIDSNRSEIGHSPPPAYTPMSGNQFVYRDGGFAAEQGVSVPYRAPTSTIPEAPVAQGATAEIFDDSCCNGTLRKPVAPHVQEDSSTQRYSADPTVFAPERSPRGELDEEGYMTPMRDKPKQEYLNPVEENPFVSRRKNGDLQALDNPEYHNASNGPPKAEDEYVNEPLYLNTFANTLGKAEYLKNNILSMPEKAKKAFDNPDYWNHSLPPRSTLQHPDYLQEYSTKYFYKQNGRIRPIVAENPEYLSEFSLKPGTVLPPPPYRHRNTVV
Experimental: as §1

ROS = target: T8, ROS (Homo sapiens, UniProt P08922); assay: ProfilerPro Kinase Selectivity, ROS
T8 construct: purchased Caliper LifeSciences
Experimental: as §1

AURA = target: T9, AURA (Homo sapiens, UniProt O14965); assay: ProfilerPro Kinase Selectivity, AURA
T9 construct: purchased Caliper LifeSciences
Experimental: as §1

PKD2 = target: T10, PKD2 (Homo sapiens, UniProt Q9BZL6); assay: ProfilerPro Kinase Selectivity, PKD2
T10 construct: purchased Caliper LifeSciences
Experimental: as §1

P38B2 = target: T11, P38B2 (Homo sapiens, UniProt Q15759); assay: ProfilerPro Kinase Selectivity, P38B2
T11 construct: purchased Caliper LifeSciences
T11 sequence (Q15759 whole entry): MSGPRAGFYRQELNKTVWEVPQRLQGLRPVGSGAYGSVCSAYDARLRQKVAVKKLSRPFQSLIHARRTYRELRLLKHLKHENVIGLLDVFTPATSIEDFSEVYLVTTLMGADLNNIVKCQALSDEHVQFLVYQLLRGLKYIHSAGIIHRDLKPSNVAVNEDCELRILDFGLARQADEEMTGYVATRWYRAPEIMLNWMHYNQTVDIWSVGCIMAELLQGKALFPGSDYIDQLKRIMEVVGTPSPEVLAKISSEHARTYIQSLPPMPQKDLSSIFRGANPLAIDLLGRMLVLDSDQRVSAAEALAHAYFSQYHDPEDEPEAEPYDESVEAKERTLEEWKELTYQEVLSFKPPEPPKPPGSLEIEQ
Experimental: as §1

PRKCB2 = target: T12, PRKCB2 (Homo sapiens, UniProt P05771); assay: ProfilerPro Kinase Selectivity, PRKCB2
T12 construct: purchased Caliper LifeSciences
Experimental: as §1

ALK = target: T13, ALK (Homo sapiens, UniProt Q9UM73); assay: ProfilerPro Kinase Selectivity, ALK
T13 construct: purchased Caliper LifeSciences
Experimental: as §1

TSSK1 = target: T14, TSSK1 (Homo sapiens, UniProt Q9BXA7); assay: ProfilerPro Kinase Selectivity, TSSK1
T14 construct: purchased Caliper LifeSciences
Experimental: as §1

FGFR1 V561M = target: T15, FGFR1 V561M (Homo sapiens, UniProt P11362, V561M); assay: ProfilerPro Kinase Selectivity, FGFR1 V561M
T15 construct: purchased Caliper LifeSciences
Experimental: as §1

CK1G3 = target: T16, CK1G3 (Homo sapiens, UniProt Q9Y6M4); assay: ProfilerPro Kinase Selectivity, CK1G3
T16 construct: purchased Caliper LifeSciences
Experimental: as §1

MST3 = target: T17, MST3 (Homo sapiens, UniProt Q9Y6E0); assay: ProfilerPro Kinase Selectivity, MST3
T17 construct: purchased Caliper LifeSciences
Experimental: as §1

MARK1 = target: T18, MARK1 (Homo sapiens, UniProt Q9P0L2); assay: ProfilerPro Kinase Selectivity, MARK1
T18 construct: purchased Caliper LifeSciences
Experimental: as §1

EPHA2 = target: T19, EPHA2 (Homo sapiens, UniProt P29317); assay: ProfilerPro Kinase Selectivity, EPHA2
T19 construct: purchased Caliper LifeSciences
Experimental: as §1

RSK1 = target: T20, RSK1 (Homo sapiens, UniProt Q15418); assay: ProfilerPro Kinase Selectivity, RSK1
T20 construct: purchased Caliper LifeSciences
T20 sequence (Q15418 whole entry, species assumed): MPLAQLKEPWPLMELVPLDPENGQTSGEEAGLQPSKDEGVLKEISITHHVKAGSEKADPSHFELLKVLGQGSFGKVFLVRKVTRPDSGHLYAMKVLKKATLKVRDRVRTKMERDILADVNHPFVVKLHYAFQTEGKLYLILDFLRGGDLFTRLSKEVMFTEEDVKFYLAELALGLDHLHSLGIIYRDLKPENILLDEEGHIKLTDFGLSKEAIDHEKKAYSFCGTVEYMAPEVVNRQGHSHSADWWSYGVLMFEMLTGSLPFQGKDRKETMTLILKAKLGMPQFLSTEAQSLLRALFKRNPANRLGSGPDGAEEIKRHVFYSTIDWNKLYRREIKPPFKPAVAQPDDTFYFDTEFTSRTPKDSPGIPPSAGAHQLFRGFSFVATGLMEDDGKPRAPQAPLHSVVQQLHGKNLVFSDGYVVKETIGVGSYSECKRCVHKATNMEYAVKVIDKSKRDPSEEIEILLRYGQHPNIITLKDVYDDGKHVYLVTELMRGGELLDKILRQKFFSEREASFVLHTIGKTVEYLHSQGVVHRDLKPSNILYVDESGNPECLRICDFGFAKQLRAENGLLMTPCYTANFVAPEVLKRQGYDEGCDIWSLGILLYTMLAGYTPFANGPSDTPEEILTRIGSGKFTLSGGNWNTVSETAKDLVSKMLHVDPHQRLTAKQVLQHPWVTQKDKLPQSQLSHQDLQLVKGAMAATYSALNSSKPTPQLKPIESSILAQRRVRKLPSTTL
Experimental: as §1

BRSK2 = target: T21, BRSK2 (Homo sapiens, UniProt Q8IWQ3); assay: ProfilerPro Kinase Selectivity, BRSK2
T21 construct: purchased Caliper LifeSciences
Experimental: as §1

EGFR T790M L858R = target: T22, EGFR T790M L858R (Homo sapiens, UniProt P00533, L858R/T790M); assay: ProfilerPro Kinase Selectivity, EGFR T790M L858R
T22 construct: purchased Caliper LifeSciences
Experimental: as §1

YES = target: T23, YES (Homo sapiens, UniProt P07947); assay: ProfilerPro Kinase Selectivity, YES
T23 construct: purchased Caliper LifeSciences
Experimental: as §1

ROCK2 = target: T24, ROCK2 (Homo sapiens, UniProt O75116); assay: ProfilerPro Kinase Selectivity, ROCK2
T24 construct: purchased Caliper LifeSciences
Experimental: as §1

LYNB = target: T25, LYNB (Homo sapiens, UniProt P07948); assay: ProfilerPro Kinase Selectivity, LYNB
T25 construct: purchased Caliper LifeSciences
Experimental: as §1

ABL Q252H = target: T26, ABL Q252H (Homo sapiens, UniProt P00519, Q252H); assay: ProfilerPro Kinase Selectivity, ABL Q252H
T26 construct: purchased Caliper LifeSciences
Experimental: as §1

CDK5/P25 = target: T27, CDK5/P25 (Homo sapiens, UniProt Q00535); assay: ProfilerPro Kinase Selectivity, CDK5/P25
T27 construct: purchased Caliper LifeSciences
T27 sequence (Q00535 whole entry, species assumed): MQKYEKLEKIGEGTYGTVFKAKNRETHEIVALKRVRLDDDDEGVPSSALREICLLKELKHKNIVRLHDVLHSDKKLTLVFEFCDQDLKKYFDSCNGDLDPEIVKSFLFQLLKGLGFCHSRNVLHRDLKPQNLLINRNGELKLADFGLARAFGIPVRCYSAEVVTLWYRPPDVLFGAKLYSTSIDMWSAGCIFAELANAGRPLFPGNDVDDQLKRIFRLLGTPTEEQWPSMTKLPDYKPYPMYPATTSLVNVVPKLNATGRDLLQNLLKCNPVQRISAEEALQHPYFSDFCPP
T27 sequence (Q15078 99-307 partner limits assumed, species assumed): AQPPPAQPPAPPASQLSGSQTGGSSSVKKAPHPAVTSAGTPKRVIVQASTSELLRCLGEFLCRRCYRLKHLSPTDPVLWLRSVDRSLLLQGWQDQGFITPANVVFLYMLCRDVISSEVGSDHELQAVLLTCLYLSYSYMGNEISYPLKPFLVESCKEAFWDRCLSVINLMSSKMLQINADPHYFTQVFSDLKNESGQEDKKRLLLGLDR
Experimental: as §1

CDK3 = target: T28, CDK3 (Homo sapiens, UniProt Q00526); assay: ProfilerPro Kinase Selectivity, CDK3
T28 construct: purchased Caliper LifeSciences
T28 sequence (Q00526 whole entry, species assumed): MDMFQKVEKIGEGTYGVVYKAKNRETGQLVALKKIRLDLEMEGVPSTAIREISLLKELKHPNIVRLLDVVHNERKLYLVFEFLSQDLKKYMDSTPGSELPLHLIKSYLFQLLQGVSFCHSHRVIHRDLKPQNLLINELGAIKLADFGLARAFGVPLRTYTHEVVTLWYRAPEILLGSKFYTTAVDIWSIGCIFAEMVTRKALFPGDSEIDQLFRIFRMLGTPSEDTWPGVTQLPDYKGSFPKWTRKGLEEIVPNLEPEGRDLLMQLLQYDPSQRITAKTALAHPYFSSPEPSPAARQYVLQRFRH
T28 sequence (P24864 whole entry partner, species assumed): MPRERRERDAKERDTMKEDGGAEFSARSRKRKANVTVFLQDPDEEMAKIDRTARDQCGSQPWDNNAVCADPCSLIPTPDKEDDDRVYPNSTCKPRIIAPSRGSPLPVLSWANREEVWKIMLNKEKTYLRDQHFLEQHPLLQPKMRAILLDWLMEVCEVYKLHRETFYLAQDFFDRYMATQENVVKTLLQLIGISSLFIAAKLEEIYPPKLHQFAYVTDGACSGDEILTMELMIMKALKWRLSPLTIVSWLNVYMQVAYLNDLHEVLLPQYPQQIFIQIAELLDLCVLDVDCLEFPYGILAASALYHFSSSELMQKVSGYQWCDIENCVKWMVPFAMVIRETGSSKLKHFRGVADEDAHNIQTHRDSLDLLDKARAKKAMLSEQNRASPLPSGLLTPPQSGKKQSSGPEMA
Experimental: as §1

NUAK1 = target: T29, NUAK1 (Homo sapiens, UniProt O60285); assay: ProfilerPro Kinase Selectivity, NUAK1
T29 construct: purchased Caliper LifeSciences
Experimental: as §1

CK1D = target: T30, CK1D (Homo sapiens, UniProt P48730); assay: ProfilerPro Kinase Selectivity, CK1D
T30 construct: purchased Caliper LifeSciences
Experimental: as §1

FGFR1 = target: T31, FGFR1 (Homo sapiens, UniProt P11362); assay: ProfilerPro Kinase Selectivity, FGFR1
T31 construct: purchased Caliper LifeSciences
Experimental: as §1

PDGFR A(550) = target: T32, PDGFR A(550) (Homo sapiens, UniProt P16234); assay: ProfilerPro Kinase Selectivity, PDGFR A(550)
T32 construct: purchased Caliper LifeSciences
T32 sequence (P16234 550-1089 limits assumed, species assumed): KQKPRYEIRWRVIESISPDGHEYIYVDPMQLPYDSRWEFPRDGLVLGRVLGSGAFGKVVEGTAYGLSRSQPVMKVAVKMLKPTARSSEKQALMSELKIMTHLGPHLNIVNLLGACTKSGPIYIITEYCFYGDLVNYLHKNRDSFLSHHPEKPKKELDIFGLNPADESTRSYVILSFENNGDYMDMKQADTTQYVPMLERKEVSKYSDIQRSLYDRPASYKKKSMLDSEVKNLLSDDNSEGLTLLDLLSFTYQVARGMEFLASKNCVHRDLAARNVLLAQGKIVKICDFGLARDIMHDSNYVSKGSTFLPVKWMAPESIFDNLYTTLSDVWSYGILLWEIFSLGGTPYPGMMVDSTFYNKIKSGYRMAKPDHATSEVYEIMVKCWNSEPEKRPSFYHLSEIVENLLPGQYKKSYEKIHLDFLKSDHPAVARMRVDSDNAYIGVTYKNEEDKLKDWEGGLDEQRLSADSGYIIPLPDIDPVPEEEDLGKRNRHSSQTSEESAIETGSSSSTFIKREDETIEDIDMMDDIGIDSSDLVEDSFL
Experimental: as §1

KDR = target: T33, KDR (Homo sapiens, UniProt P35968); assay: ProfilerPro Kinase Selectivity, KDR
T33 construct: purchased Caliper LifeSciences
Experimental: as §1

SGK3 = target: T34, SGK3 (Homo sapiens, UniProt Q96BR1); assay: ProfilerPro Kinase Selectivity, SGK3
T34 construct: purchased Caliper LifeSciences
Experimental: as §1

ERK2 = target: T35, ERK2 (Homo sapiens, UniProt P28482); assay: ProfilerPro Kinase Selectivity, ERK2
T35 construct: purchased Caliper LifeSciences
T35 sequence (P28482 whole entry, species assumed): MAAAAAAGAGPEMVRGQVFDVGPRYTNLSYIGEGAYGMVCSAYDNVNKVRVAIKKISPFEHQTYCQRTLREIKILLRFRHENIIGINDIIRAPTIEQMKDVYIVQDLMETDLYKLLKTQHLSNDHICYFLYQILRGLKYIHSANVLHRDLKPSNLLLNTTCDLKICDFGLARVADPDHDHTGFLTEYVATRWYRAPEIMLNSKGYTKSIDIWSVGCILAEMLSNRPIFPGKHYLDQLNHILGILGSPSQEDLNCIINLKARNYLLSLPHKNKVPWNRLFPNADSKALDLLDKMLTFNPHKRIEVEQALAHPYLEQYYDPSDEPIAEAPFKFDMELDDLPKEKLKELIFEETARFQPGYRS
Experimental: as §1

AURC = target: T36, AURC (Homo sapiens, UniProt Q9UQB9); assay: ProfilerPro Kinase Selectivity, AURC
T36 construct: purchased Caliper LifeSciences
T36 sequence (Q9UQB9 whole entry): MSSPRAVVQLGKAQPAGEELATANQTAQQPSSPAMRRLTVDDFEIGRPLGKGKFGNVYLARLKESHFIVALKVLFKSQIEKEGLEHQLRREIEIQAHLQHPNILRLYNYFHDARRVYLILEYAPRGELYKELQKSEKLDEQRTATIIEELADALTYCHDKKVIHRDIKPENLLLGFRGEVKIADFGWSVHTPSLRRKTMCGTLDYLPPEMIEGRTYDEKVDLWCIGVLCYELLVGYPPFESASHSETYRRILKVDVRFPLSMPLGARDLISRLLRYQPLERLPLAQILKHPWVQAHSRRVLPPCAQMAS
Experimental: as §1

CDK1/CYCB1 = target: T37, CDK1/CYCB1 (Homo sapiens, UniProt P06493); assay: ProfilerPro Kinase Selectivity, CDK1/CYCB1
T37 construct: purchased Caliper LifeSciences
Experimental: as §1

JAK2 = target: T38, JAK2 (Homo sapiens, UniProt O60674); assay: ProfilerPro Kinase Selectivity, JAK2
T38 construct: purchased Caliper LifeSciences
Experimental: as §1

CC1(C)CC(=O)c2c(SC3CCCC3)sc(-c3cc[nH]n3)c2C1 [Example 7, 3-(Cyclopentylsulfanyl)-6,6-dimethyl-1-(1H-pyrazol-3-yl)-6,7-dihydro-2-benzothiophen-4(5H)-one]
inhibition at 10 µM (MINK): -1.5% | inhibition at 10 µM (INSR): 0.9% | inhibition at 10 µM (PRKCH): 0.8% | inhibition at 10 µM (MST2): -2.3% | inhibition at 10 µM (EPHA4): -3.5% | inhibition at 10 µM (MET): -0.9% | inhibition at 10 µM (HER4): -2.2% | inhibition at 10 µM (ROS): 42.7% | inhibition at 10 µM (AURA): 11% | inhibition at 10 µM (PKD2): -4.2% | inhibition at 10 µM (P38B2): -0.7% | inhibition at 10 µM (PRKCB2): 6.4% | inhibition at 10 µM (ALK): 44.7% | inhibition at 10 µM (TSSK1): 8.3% | inhibition at 10 µM (FGFR1 V561M): 7.9% | inhibition at 10 µM (CK1G3): 7.7% | inhibition at 10 µM (MST3): -10.9% | inhibition at 10 µM (MARK1): -0.6% | inhibition at 10 µM (EPHA2): 0.7% | inhibition at 10 µM (RSK1): 3.3% | inhibition at 10 µM (BRSK2): -11.1% | inhibition at 10 µM (EGFR T790M L858R): 13.7% | inhibition at 10 µM (YES): -11.1% | inhibition at 10 µM (ROCK2): 0.9% | inhibition at 10 µM (LYNB): -4.9% | inhibition at 10 µM (ABL Q252H): 3.9% | inhibition at 10 µM (CDK5/P25): -11.7% | inhibition at 10 µM (CDK3): 2.5% | inhibition at 10 µM (NUAK1): -4.2% | inhibition at 10 µM (CK1D): 12.9% | inhibition at 10 µM (FGFR1): 7.4% | inhibition at 10 µM (PDGFR A(550)): -13.8% | inhibition at 10 µM (KDR): -0.8% | inhibition at 10 µM (SGK3): 4.6% | inhibition at 10 µM (ERK2): -0.9% | inhibition at 10 µM (AURC): 3.5% | inhibition at 10 µM (CDK1/CYCB1): -6.7% | inhibition at 10 µM (JAK2): 5.3%

CSc1sc(-c2cc[nH]n2)c2c1C(=O)CCC2 [Example 1, 3-(Methylsulfanyl)-1-(1H-pyrazol-3-yl)-6,7-dihydro-2-benzothiophen-4(5H)-one]
inhibition at 10 µM (MINK): 24.8% | inhibition at 10 µM (INSR): 3.4% | inhibition at 10 µM (PRKCH): 1.1% | inhibition at 10 µM (MST2): 12.3% | inhibition at 10 µM (EPHA4): -0.8% | inhibition at 10 µM (MET): 8.2% | inhibition at 10 µM (HER4): -2.4% | inhibition at 10 µM (ROS): 33.7% | inhibition at 10 µM (AURA): 44% | inhibition at 10 µM (PKD2): -2.5% | inhibition at 10 µM (P38B2): -1.3% | inhibition at 10 µM (PRKCB2): -7.4% | inhibition at 10 µM (ALK): 23.8% | inhibition at 10 µM (TSSK1): 24% | inhibition at 10 µM (FGFR1 V561M): 4.4% | inhibition at 10 µM (CK1G3): 1.1% | inhibition at 10 µM (MST3): -2.2% | inhibition at 10 µM (MARK1): -2.9% | inhibition at 10 µM (EPHA2): 0.7% | inhibition at 10 µM (RSK1): 9.5% | inhibition at 10 µM (BRSK2): -1.7% | inhibition at 10 µM (EGFR T790M L858R): 3.9% | inhibition at 10 µM (YES): -4.4% | inhibition at 10 µM (ROCK2): -3.5% | inhibition at 10 µM (LYNB): 8.2% | inhibition at 10 µM (ABL Q252H): 16.9% | inhibition at 10 µM (CDK5/P25): 9.5% | inhibition at 10 µM (CDK3): 21.4% | inhibition at 10 µM (NUAK1): 44.2% | inhibition at 10 µM (CK1D): 44.6% | inhibition at 10 µM (FGFR1): 1.9% | inhibition at 10 µM (PDGFR A(550)): 1.5% | inhibition at 10 µM (KDR): 16.4% | inhibition at 10 µM (SGK3): 4.6% | inhibition at 10 µM (ERK2): 4.5% | inhibition at 10 µM (AURC): 27.9% | inhibition at 10 µM (CDK1/CYCB1): 5.3% | inhibition at 10 µM (JAK2): 19.4%
